Experimental data taken from paper PMC10912632, “Racemization of the substrate and product by serine palmitoyltransferase from Sphingobacterium multivorum yields two enantiomers of the product from D-serine” (The Journal of Biological Chemistry, 2024).
Values joined by “and” are separate entries in the source; they are usually repeats but may differ in a detail not shown here. Identical values can stand only once. Like-named read-outs stand apart in the source and are kept apart here. Marks after values point to notes of the source that are not given here.

Assays:
[1] = biological target: T1, Sphingobacterium multivorum SPT (Sphingobacterium multivorum, UniProt A7BFV6); experiment: Chiral HPLC of 7-methoxycoumarin-labeled KDS enantiomers after SPT reaction or incubation; format: biochemical; settings: 1.3 mM KDS incubated with 230 μM SPT, 37 °C, 120 min
T1 construct: harboring the plasmid expressing the full-length SPT; made in house; host or cells: Escherichia coli BL21 (DE3) pLysS
T1 sequence (A7BFV6 whole entry): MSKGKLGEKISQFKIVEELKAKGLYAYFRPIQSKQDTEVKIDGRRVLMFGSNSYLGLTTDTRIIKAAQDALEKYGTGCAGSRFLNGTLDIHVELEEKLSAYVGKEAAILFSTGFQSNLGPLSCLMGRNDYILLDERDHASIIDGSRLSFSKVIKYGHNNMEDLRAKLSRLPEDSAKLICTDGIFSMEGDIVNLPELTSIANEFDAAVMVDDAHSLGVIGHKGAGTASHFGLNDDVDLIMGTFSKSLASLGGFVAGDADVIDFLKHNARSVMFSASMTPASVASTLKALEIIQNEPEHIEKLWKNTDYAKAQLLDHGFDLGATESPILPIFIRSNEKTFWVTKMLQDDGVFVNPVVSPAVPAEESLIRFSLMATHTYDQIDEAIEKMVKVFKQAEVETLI
Text: KDS has a chiral center at the C2 position to which hydrogen, hydroxymethyl, amino, and acyl groups are attached. In the present study, it was necessary to know which optical isomer, (2S)- or (2R)-KDS, was formed from D-serine. In order to detect KDS enantiomers, we developed a new method in which each enantiomer of 7-methoxycoumarin-labeled KDS was separated and quantified by chiral HPLC (Fig. 2A). First, the standard compounds (2S)-2-amino-1-hydroxyoctadecan-3-one (L-serine–type (2S)-KDS) and (2R)-2-amino-1-hydroxyoctadecan-3-one (D-serine–type (2R)-KDS) were chemically synthesized (Supporting information). Next, the conditions for fluorescence labeling and HPLC were examined using these authentic compounds; the successful separation of KDS enantiomers was achieved by 7-methoxycoumarin labeling of the amino group of KDS (Fig. 2B, lines 1–3). The labeled (2S)-KDS and (2R)-KDS were eluted at 7.7 and 8.9 min, respectively, with the calculated separation factor of 1.3 (Fig. 2B, line 3). When the SPT reaction product derived from L-serine was analyzed, two fluorescence peaks were detected (Fig. 2B, line 4). […] Similarly, for the SPT reaction product derived from D-serine, two fluorescence peaks corresponding to 7-methoxycoumarin-labeled (2S)-KDS and 7-methoxycoumarin-labeled (2R)-KDS were detected (Fig. 2B, line 5). […]

[2] = biological target: T1, Sphingobacterium multivorum SPT; experiment: Spectroscopic titration of SPT with amino acids (422 nm absorption, external aldimine formation); format: binding; settings: 10 μM SPT
Protocol: (§1) Dependency of the reaction rates on amino acid concentrations under the condition of 1 mM palmitoyl-CoA was examined (Table 1). Each LCB product was quantified by the fluorescence intensity based on the standard curve obtained by using the corresponding authentic compound ([23]). The value of apparent catalytic efficiency ( kcatapp/Kmapp ) for D-serine was 0. 0013 min^–1 mM^–1 and was much smaller than that for L-serine ( kcatapp/Kmapp = 3.6 min^–1 mM^–1). Therefore, the KDS production by SPT from D-serine is considered to be negligible at the physiological concentration of D-serine. Next, binding of D-serine to the S. multivorum SPT was examined by spectroscopic titration. When SPT was incubated with D-serine, spectral changes corresponding to the external aldimine formation between PLP and the amino acid were observed (Supporting information).
Figure S1. Spectroscopic titration of the S. multivorum SPT with D-serine or α-methyl-D-serine. (A) Absorption spectra of SPT (10 μM) in the presence of 0, 2.0, 5.0, 9.9, 15, 20, 29, 38, and 48 mM D-serine (lines 1–9, respectively).
(B) Absorption spectra of SPT (10 μM) in the presence of 0, 3.0, 6.0, 9.9, 20, 34, 52, 74, and 99 mM α-methyl-D-serine (lines 1–9, respectively).
Determination of dissociation constants (Kd) for amino acids.
The titration assay was carried out as previously reported (1). The changes of the 422 nm-absorption intensities of SPT upon addition of amino acids were plotted against the final concentrations of the amino acids, and the Kd values were calculated by fitting to a hyperbolic saturation curve using Igor Pro 6.37. software (Wave Matrix Inc., Lake Oswego, Oregon, […]
United States). […]

[3] = biological target: T1, Sphingobacterium multivorum SPT; experiment: Serine racemase assay of SPT (fluorescence derivatization, reverse-phase HPLC); format: biochemical; settings: 1 mM D-serine, 47 μM SPT, 37 °C, no palmitoyl-CoA
Protocol: In order to verify the possibility of conversion between D-serine and L-serine, the serine racemase activity of SPT in the absence of palmitoyl-CoA was examined by the combination of fluorescence labeling and reverse-phase HPLC (Fig. 4).
One millimolar L-serine or D-serine was incubated with or without 47 μM SPT at 37 °C for 24 h. […] The reaction mixture containing 1 mM serine and 47 μM SPT was incubated at 37 °C for 1 to 24 h. […] The reaction mixture contained 1 mM serine and either or both of 1 mM PLP and 47 μM SPT.
Serine racemase assay of SPT was performed by determining the amount of each antipodal serine derivative formed from D-serine or L-serine as previously reported with some modifications ([48]). After D/L-serine was derivatized to fluorescent diastereomer, the enantioselective detection of serine was performed on an HPLC system with a Multi lambda Fluorescence Detector (Waters Corporation). The reaction was carried out at 37 °C for 1 to 24 h in a reaction mixture (100 μl) containing 100 mM Tris/HCl buffer (pH 7.5), 1 mM D/L-serine, and 47 μM SPT with or without 1 mM PLP. […] For fluorescence detection, the excitation and emission wavelengths were 350 nm and 450 nm, respectively. […]

[4] = biological target: T1, Sphingobacterium multivorum SPT; experiment: Steady-state kinetics of LCB (KDS) formation by SPT; format: biochemical; settings: 1 mM palmitoyl-CoA
Protocol: as §1
The assay was performed as previously reported ([23]). For qualitative analysis, 500 mM of L-serine or D-serine was incubated with 1 mM palmitoyl-CoA and 100 μM SPT in 100 μl of 100 mM potassium phosphate, pH 7.5, at 37 °C for 60 min. [1-^14C] palmitoyl-CoA (20 kBq/μmol) was supplemented into the above reaction mixture as the tracer. The reactions were terminated by addition of the equal volume of 2 N ammonia. Lipids were extracted by successive addition and mixing of 750 μl of chloroform/methanol (1:2, v/v), 250 μl of chloroform, and 250 μl of 1% KCl. Phases were separated by centrifugation, and the organic phase was recovered. […] For the quantitative analysis, the UV-fluorescence intensities of the reaction products on TLC plates were visualized by a Fusion chemiluminescence imaging system using a UV-light box and analyzed by a FUSION Capt software (Vilber Lourmat).
Steady-state kinetic parameters were determined by varying the concentrations of D-serine in the presence of 1 mM palmitoyl-CoA in 100 μl of 100 mM potassium phosphate, pH 7.5, at 37 °C. […] The reaction termination, lipid extraction, TLC analysis, and quantification of the reaction products on TLC plates were described above. […]

[5] = biological target: T1, Sphingobacterium multivorum SPT; experiment: TLC/autoradiography analysis of KDS formation; format: biochemical; settings: 500 mM serine, 1 mM [1-14C]-palmitoyl-CoA, 100 μM SPT, 37 °C, 60 min
Text: We previously reported that the KDS formation from D-serine was not detected under physiological assay conditions using S. paucimobilis SPT ([15], [47]). […] Each reaction product was ninhydrin-positive with the specific color and the Rf value, which corresponded to those of a commercial authentic KDS on the TLC plate (Fig. 1A, lanes 2 and 4). […] Such radioactive reaction products were not detected under the reaction condition lacking the amino acid substrate or SPT. The structure of the reaction product derived from each serine enantiomer was confirmed by HPLC/triple quadrupole/linear ion trap mass spectrometry using a commercially available authentic KDS as the standard (Fig. 1C).
Figure 1 Formation of KDS from L-serine and D-serine by the Sphingobacterium multivorum SPT.A, image of the TLC analysis of KDS visualized with ninhydrin reagent: lane 1, extract of the reaction mixture without the amino acid substrate; lane 2, extract of the reaction mixture with L-serine; lane 3, commercial authentic KDS (L-serine–derived, (2S)-KDS); lane 4, extract of the reaction mixture with D-serine; lane 5, extract of the reaction mixture without SPT. The complete reaction mixture contained 500 mM L-/D-serine, 1 mM palmitoyl-CoA, and 100 μM SPT and was incubated at 37 °C for 60 min. […] Radioactivity was incorporated to the reaction product from the substrate [1-^14C]-palmitoyl-CoA. […]

[6] = biological target: T1, Sphingobacterium multivorum SPT; parameters: method as in PMID 23957439; settings: 1 mM palmitoyl-CoA; cited from earlier work
[7] = biological target: T1, Sphingobacterium multivorum SPT; parameters: method as in PMID 23957439; settings: spectroscopic titration; cited from earlier work

Row | SMILES | Kd [2] [mM] | Kmapp [6] | kcatapp [6] | kcatapp/Kmapp (apparent catalytic efficiency) [6] | other results
1 | CCCCCCCCCCCCCCCC(=O)[C@H](N)CO [(2R)-KDS, (2R)-2-amino-1-hydroxyoctadecan-3-one] |  |  |  |  | SPT-dependent racemization of KDS enantiomer [1]: the racemized product was formed in each case, albeit in a smaller amount
2 | CCCCCCCCCCCCCCCC(=O)[C@@H](N)CO [(2S)-KDS, (2S)-2-amino-1-hydroxyoctadecan-3-one] |  |  |  |  | SPT-dependent racemization of KDS enantiomer [1]: the racemized product was formed in each case, albeit in a smaller amount
3 | N[C@H](CCO)C(=O)O [D-homoserine] | 90 ± 8 |  |  |  | 
4 | N[C@H](CO)C(=O)O [D-serine] | 11 ± 1.8 |  |  |  | formation rate of L-serine from D-serine (racemization) [3]: 0.0020 min^–1; kcatapp/Kmapp (apparent catalytic efficiency) [4]: 0.0013 min^–1 mM^–1; Kmapp ([4]; 10 μM SPT, pH 7.5, 37 °C): 237.7 ± 44.3 mM; kcatapp ([4]; 10 μM SPT, pH 7.5, 37 °C): 0.31 ± 0.02 min^–1; formation of KDS reaction product [5]: the reaction product was formed
5 | C[C@H](N)C(=O)O [L-alanine] |  | 110 ± 9.0 ^b mM | 0.42 ± 0.011 ^b min^–1 | 0.0037 ^b min^–1 mM^–1 | 
6 | N[C@@H](CCO)C(=O)O [L-homoserine] |  | 82 ± 14 ^b mM | 4.5 ± 0.28 ^b min^–1 | 0.055 ^b min^–1 mM^–1 | Kd [7]: 3.6 ± 0.2 mM
7 | N[C@@H](CO)C(=O)O [L-serine] |  | 3.6 ± 0.87 ^b mM | 13 ± 1.0 ^b min^–1 | 3.6 min^–1 mM^–1 and 3.6 ^b min^–1 mM^–1 | formation of KDS reaction product [5]: the reaction product was formed
8 | NCC(=O)O [glycine] |  | 77 ± 8.1 ^b mM | 0.008 ± 0.002 ^b min^–1 | 0.0001 ^b min^–1 mM^–1 | Kd [7]: 71 ± 5.5 mM
9 | C[C@@](N)(CO)C(=O)O [α-methyl-D-serine, reference compound] | 27 ± 2.5 |  |  |  | 
10 | C[C@](N)(CO)C(=O)O [α-methyl-L-serine, reference compound] | 8.3 ± 1.8 |  |  |  | 
